# Measured values taken from patent US20230265151A1, “GIP/GLP1 CO-AGONIST COMPOUNDS” (priority 2020, published 2023).
# Like-named read-outs stand apart in the source and are kept apart here.
# Experiments:
# Assay type in all cases: cell-based
# hGLP-1R = hGLP-1R (Homo sapiens, UniProt P43220); test: Functional cAMP formation (HTRF) in HEK-293 clonal cells expressing hGLP-1R, 0.1% bovine casein, without or with 1.0% human serum albumin; parameters: expressed in transfected cells; conditions: for Emax: percent of maximal response to GLP-1(7-36)NH2; for EC50: cAMP
# Method in brief: (§1)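 Readings of the HTRF 665/620 nm ratio, which falls as cAMP rises, were converted to nM cAMP using a standard curve after 30 min peptide exposure at 37° C.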
# hGCGR = target: T1, hGCGR (Homo sapiens, UniProt P47871); test: Functional cAMP formation (HTRF) in HEK-293 clonal cells expressing hGCGR, 0.1% bovine casein, without or with 1.0% human serum albumin; conditions: cAMP, 37° C.
# T1 construct: expressed in transfected cells
# Method in brief: as §1
# hGIPR = target: T2, hGIPR (Homo sapiens, UniProt P48546); test: Functional cAMP formation (HTRF) in HEK-293 clonal cells expressing hGIPR, 0.1% bovine casein, without or with 1.0% human serum albumin; conditions: for Emax: percent of maximal response to GIP(1-42)NH2; for EC50: cAMP
# T2 construct: expressed in transfected cells
# T2 sequence (P48546 22-466): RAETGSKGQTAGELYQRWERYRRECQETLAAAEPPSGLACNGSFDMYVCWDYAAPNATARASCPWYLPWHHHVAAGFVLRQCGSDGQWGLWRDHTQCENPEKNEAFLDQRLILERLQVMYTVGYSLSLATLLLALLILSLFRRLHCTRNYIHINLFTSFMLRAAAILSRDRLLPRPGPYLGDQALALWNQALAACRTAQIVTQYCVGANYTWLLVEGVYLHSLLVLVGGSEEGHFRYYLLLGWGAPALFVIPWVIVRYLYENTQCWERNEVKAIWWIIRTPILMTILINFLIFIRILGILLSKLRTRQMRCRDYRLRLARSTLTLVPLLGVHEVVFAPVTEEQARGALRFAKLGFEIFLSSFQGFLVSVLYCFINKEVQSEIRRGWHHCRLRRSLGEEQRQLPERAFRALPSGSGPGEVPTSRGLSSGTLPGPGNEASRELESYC
# Method in brief: as §1
# [1] = HEK293, read-out: hGLP-1R Emax, % ± SEM, cAMP, 37° C., 0.1% bovine casein and 1.0% human serum albumin
# [2] = hGLP-1R EC50, nM (SEM, n), 37° C., 0.1% bovine casein (no human serum albumin), geometric mean
# [3] = hGCGR EC50, nM (SEM, n), 0.1% bovine casein (no human serum albumin), geometric mean
# [4] = hGCGR EC50, nM (SEM, n), 0.1% bovine casein and 1.0% human serum albumin, geometric mean (SEM, n)
# [5] = HEK293, read-out: hGIPR Emax, % ± SEM, cAMP, 37° C., 0.1% bovine casein and 1.0% human serum albumin
# [6] = 37° C., 0.1% bovine casein (no human serum albumin), geometric mean, read-out: hGLP-1R EC50, nM (SEM, n)
# [7] = 0.1% bovine casein (no human serum albumin), geometric mean, read-out: hGCGR EC50, nM (SEM, n)
# [8] = 0.1% bovine casein and 1.0% human serum albumin, geometric mean (SEM, n), read-out: hGCGR EC50, nM (SEM, n)
# [9] = HEK293, cAMP, 37° C., 0.1% bovine casein and 1.0% human serum albumin, read-out: hGIPR Emax, % ± SEM
# [10] = 37° C., 0.1% bovine casein and 1.0% human serum albumin, geometric mean (SEM, n), read-out: hGIPR EC50, nM (SEM, n)
# T1 sequence (P47871 26-477): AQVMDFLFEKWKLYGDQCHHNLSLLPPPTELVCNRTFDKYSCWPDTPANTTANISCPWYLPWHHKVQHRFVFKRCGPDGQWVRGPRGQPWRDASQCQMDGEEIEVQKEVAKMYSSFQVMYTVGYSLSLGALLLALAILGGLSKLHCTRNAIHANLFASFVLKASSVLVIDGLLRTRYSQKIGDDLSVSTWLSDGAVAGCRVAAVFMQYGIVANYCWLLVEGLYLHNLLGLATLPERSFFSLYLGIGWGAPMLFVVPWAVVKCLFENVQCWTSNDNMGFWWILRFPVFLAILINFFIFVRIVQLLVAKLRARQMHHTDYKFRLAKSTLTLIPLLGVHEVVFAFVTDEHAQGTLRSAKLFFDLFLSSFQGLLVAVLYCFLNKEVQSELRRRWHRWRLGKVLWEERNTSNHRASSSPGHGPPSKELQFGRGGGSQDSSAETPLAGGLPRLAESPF
# hGLP-1R, sequence (P43220 24-463): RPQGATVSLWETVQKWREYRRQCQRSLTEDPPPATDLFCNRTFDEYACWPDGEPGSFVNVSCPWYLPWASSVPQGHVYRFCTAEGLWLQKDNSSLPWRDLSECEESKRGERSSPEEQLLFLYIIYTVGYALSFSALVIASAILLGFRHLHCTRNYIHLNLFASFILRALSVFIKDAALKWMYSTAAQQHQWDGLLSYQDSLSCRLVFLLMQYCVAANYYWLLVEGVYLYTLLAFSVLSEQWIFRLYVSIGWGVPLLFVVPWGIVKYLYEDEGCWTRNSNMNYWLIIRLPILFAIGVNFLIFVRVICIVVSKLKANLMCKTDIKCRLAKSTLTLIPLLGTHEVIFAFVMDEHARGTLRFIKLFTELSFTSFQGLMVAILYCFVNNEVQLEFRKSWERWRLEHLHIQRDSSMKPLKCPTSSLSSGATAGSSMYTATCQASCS
compound,measurement,setting,value
CC[C@H](C)[C@H](NC(=O)[C@H](CCCN)NC(=O)[C@H](CC(=O)O)NC(=O)[C@H](CC(C)C)NC(=O)[C@](C)(CC(C)C)NC(=O)[C@@H](NC(=O)[C@H](CO)NC(=O)[C@H](CCc1ccc(O)cc1)NC(=O)[C@H](CC(=O)O)NC(=O)[C@H](CO)NC(=O)[C@@H](NC(=O)[C@](C)(Cc1ccccc1F)NC(=O)[C@@H](NC(=O)CNC(=O)[C@H](CCC(=O)O)NC(=O)C(C)(C)NC(=O)[C@@H](N)Cc1ccc(O)cc1)[C@@H](C)O)[C@@H](C)O)[C@@H](C)CC)C(=O)N[C@@H](C)C(=O)N[C@@H](CCC(N)=O)C(=O)NC(C)(C)C(=O)N[C@@H](CCCCNC(=O)COCCOCCNC(=O)COCCOCCNC(=O)CC[C@H](NC(=O)CCCCCCCCCOc1ccc(C(=O)O)cc1)C(=O)O)C(=O)N[C@@H](Cc1ccccc1)C(=O)N[C@H](C(=O)N[C@H](CCC(=O)O)C(=O)N[C@@](C)(Cc1ccc(O)cc1)C(=O)N[C@@H](CC(C)C)C(=O)N[C@H](C(=O)N[C@@H](CCCCNC(=O)COCCOCCNC(=O)COCCOCCNC(=O)CC[C@H](NC(=O)CCCCCCCCCOc1ccc(C(=O)O)cc1)C(=O)O)C(=O)NCC(=O)NCC(=O)N1CCC[C@H]1C(=O)N[C@@H](CO)C(=O)N[C@@H](CO)C(=O)NCC(=O)N[C@@H](C)C(=O)N1CCC[C@H]1C(=O)N1CCC[C@H]1C(=O)N1CCC[C@H]1C(=O)N[C@@H](CO)C(N)=O)[C@@H](C)CC)[C@@H](C)CC [Example 332],Emax,hGLP-1R; [1],116%
same,Emax,"hGLP-1R; HEK293, read-out: hGLP-1R Emax, % ± SEM, cAMP, 37° C., 0.1% bovine casein, arithmetic mean",114%
same,EC50,hGLP-1R; [2],0.263 nM
same,EC50,hGCGR; [3],> 9950 nM
same,EC50,hGCGR; [4],> 9950 nM
same,Emax,hGIPR; [5],96.5%
CCCC[C@H](NC(=O)[C@H](CC(=O)O)NC(=O)[C@H](CO)NC(=O)[C@@H](NC(=O)[C@](C)(Cc1ccccc1F)NC(=O)[C@@H](NC(=O)CNC(=O)[C@H](CCC(=O)O)NC(=O)C(C)(C)NC(=O)[C@@H](N)Cc1ccc(O)cc1)[C@@H](C)O)[C@@H](C)O)C(=O)N[C@@H](CO)C(=O)N[C@H](C(=O)N[C@@](C)(CC(C)C)C(=O)N[C@@H](CC(C)C)C(=O)N[C@@H](CC(=O)O)C(=O)N[C@@H](CCCN)C(=O)N[C@H](C(=O)N[C@@H](C)C(=O)N[C@@H](CCC(N)=O)C(=O)NC(C)(C)C(=O)N[C@@H](CCCCNC(=O)COCCOCCNC(=O)COCCOCCNC(=O)CC[C@H](NC(=O)CCCCCCCCCOc1ccc(C(=O)O)cc1)C(=O)O)C(=O)N[C@@H](Cc1ccccc1)C(=O)N[C@H](C(=O)N[C@H](CCC(=O)O)C(=O)N[C@@](C)(Cc1ccc(O)cc1)C(=O)N[C@@H](CC(C)C)C(=O)N[C@H](C(=O)N[C@@H](CCCCNC(=O)COCCOCCNC(=O)COCCOCCNC(=O)CC[C@H](NC(=O)CCCCCCCCCOc1ccc(C(=O)O)cc1)C(=O)O)C(=O)NCC(=O)NCC(=O)N1CCC[C@H]1C(=O)N[C@@H](CO)C(=O)N[C@@H](CO)C(=O)NCC(=O)N[C@@H](C)C(=O)N1CCC[C@H]1C(=O)N1CCC[C@H]1C(=O)N1CCC[C@H]1C(=O)N[C@@H](CO)C(N)=O)[C@@H](C)CC)[C@@H](C)CC)[C@@H](C)CC)[C@@H](C)CC [Example 333],Emax,hGLP-1R; [1],93.3%
same,EC50,hGLP-1R; [2],0.388 nM
same,EC50,hGCGR; [3],> 9950 nM
same,EC50,hGCGR; [4],> 9950 nM
same,Emax,hGIPR; [5],100%
same,Emax,"hGIPR; HEK293, read-out: hGIPR Emax, % ± SEM, cAMP, 37° C., 0.1% bovine casein, arithmetic mean",109%
same,EC50,"hGIPR; hGIPR EC50, nM (SEM, n), 37° C., 0.1% bovine casein (no human serum albumin), geometric mean",0.0062 nM
CCCCCCCCCCCC(=O)N[C@@H](CCC(=O)NCCOCCOCC(=O)NCCOCCOCC(=O)NCCCC[C@H](NC(=O)[C@H](CCCN)NC(=O)[C@H](CC(=O)O)NC(=O)[C@H](CC(C)C)NC(=O)[C@](C)(CC(C)C)NC(=O)[C@@H](NC(=O)[C@H](CO)NC(=O)[C@H](CCc1ccc(O)cc1)NC(=O)[C@H](CC(=O)O)NC(=O)[C@H](CO)NC(=O)[C@@H](NC(=O)[C@](C)(Cc1ccccc1F)NC(=O)[C@@H](NC(=O)CNC(=O)[C@H](CCC(=O)O)NC(=O)C(C)(C)NC(=O)[C@@H](N)Cc1ccc(O)cc1)[C@@H](C)O)[C@@H](C)O)[C@@H](C)CC)C(=O)N[C@@H](C)C(=O)N[C@@H](CCC(N)=O)C(=O)NC(C)(C)C(=O)N[C@@H](CCC(=O)O)C(=O)N[C@@H](Cc1ccccc1)C(=O)N[C@H](C(=O)N[C@H](CCC(=O)O)C(=O)N[C@@](C)(Cc1ccc(O)cc1)C(=O)N[C@@H](CC(C)C)C(=O)N[C@H](C(=O)N[C@@H](CCCCNC(=O)COCCOCCNC(=O)COCCOCCNC(=O)CC[C@H](NC(=O)CCCCCCCCCCC)C(=O)O)C(=O)NCC(=O)NCC(=O)N1CCC[C@H]1C(=O)N[C@@H](CO)C(=O)N[C@@H](CO)C(=O)NCC(=O)N[C@@H](C)C(=O)N1CCC[C@H]1C(=O)N1CCC[C@H]1C(=O)N1CCC[C@H]1C(=O)N[C@@H](CO)C(N)=O)[C@@H](C)CC)[C@@H](C)CC)C(=O)O [Example 335],Emax,"hGLP-1R; HEK293, cAMP, 37° C., 0.1% bovine casein, arithmetic mean, read-out: hGLP-1R Emax, % ± SEM",113%
same,EC50,hGLP-1R; [6],0.175 nM
same,EC50,"hGLP-1R; 37° C., 0.1% bovine casein and 1.0% human serum albumin, geometric mean (SEM, n), read-out: hGLP-1R EC50, nM (SEM, n)",12.3 nM
same,EC50,hGCGR; [7],> 9950 nM
same,EC50,hGCGR; [8],> 9950 nM
same,Emax,hGIPR; [9],85.2%
same,EC50,hGIPR; [10],1.04 nM
CC[C@H](C)[C@H](NC(=O)[C@H](CC(C)C)NC(=O)[C@](C)(Cc1ccc(O)cc1)NC(=O)[C@@H](CCC(=O)O)NC(=O)[C@@H](NC(=O)[C@H](Cc1ccccc1)NC(=O)[C@H](CCCCNC(=O)COCCOCCNC(=O)CC[C@H](NC(=O)CCCCCCCCCCCCC(=O)O)C(=O)O)NC(=O)C(C)(C)NC(=O)[C@H](CCC(N)=O)NC(=O)[C@H](C)NC(=O)[C@H](CCCCNC(=O)COCCOCCNC(=O)CC[C@H](NC(=O)CCCCCCCCCCCCC(=O)O)C(=O)O)NC(=O)[C@H](CCCN)NC(=O)[C@H](CC(=O)O)NC(=O)[C@H](CC(C)C)NC(=O)[C@](C)(CC(C)C)NC(=O)[C@@H](NC(=O)C(C)(C)NC(=O)[C@H](Cc1ccncc1)NC(=O)[C@H](CC(=O)O)NC(=O)[C@H](CO)NC(=O)[C@@H](NC(=O)[C@](C)(Cc1ccccc1F)NC(=O)[C@@H](NC(=O)CNC(=O)[C@H](CCC(=O)O)NC(=O)C(C)(C)NC(=O)[C@@H](N)Cc1ccc(O)cc1)[C@@H](C)O)[C@@H](C)O)[C@@H](C)CC)[C@@H](C)CC)C(=O)N[C@@H](CCC(=O)O)C(=O)NCC(=O)NCC(=O)N1CCC[C@H]1C(=O)N[C@@H](CO)C(=O)N[C@@H](CO)C(=O)NCC(=O)N[C@@H](C)C(=O)N1CCC[C@H]1C(=O)N1CCC[C@H]1C(=O)N1CCC[C@H]1C(=O)N[C@@H](CO)C(N)=O [Example 336],EC50,hGLP-1R; [6],0.338 nM
same,EC50,hGCGR; [7],> 10100 nM
same,EC50,hGCGR; [8],> 10100 nM
same,Emax,hGIPR; [9],94.6%
same,Emax,"hGIPR; HEK293, cAMP, 37° C., 0.1% bovine casein, arithmetic mean, read-out: hGIPR Emax, % ± SEM",109%
same,EC50,"hGIPR; 37° C., 0.1% bovine casein (no human serum albumin), geometric mean, read-out: hGIPR EC50, nM (SEM, n)",0.0136 nM
same,EC50,hGIPR; [10],2.92 nM
